Data published in patent publication US20240368239A1, “Novel bispecific protein and use thereof” (SL METAGEN, priority 2020, published 2024).

Test system: B6 normal mice
Assay: Fluorescence spectrometry tissue distribution of Cy5.5-labelled substances
Assay type: in vivo
Conditions: 24 hours after administration, Cy5.5 label
Protocol: Next, the present inventors performed an experiment in B6 normal mice in order to observe the distribution in each tissue and organ according to the administration of a bispecific fusion protein according to an embodiment of the present invention. Cy5.5 was used as a fluorophore for tracking the distribution after administration of each substance. Buffer exchange was performed for each substance to be administered, MG12-1, MG12-4, and GLP-1Fc homodimer with boric acid buffer (pH 8.5), and with reference to the protocol of the Cy5.5 labeling kit (GE, #PA15605) were allowed to react with an appropriate amount of Cy5.5 overnight under refrigeration conditions. Unreacted Cy5.5 in the reaction-completed substance was removed through the PBS substitution process, and whether Cy5.5 was reacted well was confirmed through the final SDS-PAGE. Each administered substance was diluted with 10% DMSO/PBS to have the same fluorescence intensity using an ELISA plate reader capable of measuring fluorescence intensity before being administered.

- Average fluorescence intensity, Brain: 0
- Average fluorescence intensity, Large intestine: 0
- Average fluorescence intensity, Small intestine: 0
Substance: Cy5.5 [reference compound]
